Reference: US11724981B2, “Cationic surfactants comprising an ether link” (Battelle Memorial Institute, priority 2018, dated 2023)

Assay: Aquatic toxicity according to Method 2007
Conditions: in vivo, Mysidopsis Bahia
Description: (References: OECD Guideline for the Testing of Chemicals: BG1Luc Estrogen Receptor Transactivation Test Method for Identifying Estrogen Receptor Agonists and Antagonists, OECD Guidelines for the Testing of Chemicals, Section 4, OECD Publishing, Paris, https://doi.org/10.1787/9789264185395-en, and http://ntp.niehs.nih.gov/ntp/about_ntp/sacatm/2012/september/d_draft_oecdtg457bg1luc_508.pdf; and G. Bittner, M. Denison, C. Yang, M. Stoner and G. He, Environmental Health 2014, 13 103). They were also tested for aquatic toxicity according to Method 2007 using Mysidopsis Bahia.

For `CCCCCCCCCCCCCCCC[N+](C)(C)C` [CTAB, cetyl trimethyl ammonium bromide], the LC50 at 96 h was 0.2 mg/L.
